Measurements as given in ChEMBL document CHEMBL1201861, “Genomics of Drug Sensitity in Cancer screening data, Wellcome Trust Sanger Institute”.

Key:
Assay in all cases: cells
COLO-800 = type: functional, cell-based, Homo sapiens; settings: Homo sapiens, COLO-800;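 note: growth inhibition of COLO-800 cells, read out with a cell viability assay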
Description: SANGER: Inhibition of human COLO-800 cell growth in a cell viability assay.

CTV-1 = type: functional, cell-based, Homo sapiens; settings: Homo sapiens, CTV-1;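 note: growth inhibition of the cell line, read out with a cell viability assay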
Description: SANGER: Inhibition of human CTV-1 cell growth in a cell viability assay.

D283 Med = type: functional, cell-based, Homo sapiens; settings: Homo sapiens, D283 Med
Description: SANGER: Inhibition of human D-283MED cell growth in a cell viability assay.

DSH1 = type: functional, cell-based, Homo sapiens; settings: Homo sapiens, DSH1;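 note: growth inhibition of human DSH1 cells, measured with a cell viability readout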
Description: SANGER: Inhibition of human DSH1 cell growth in a cell viability assay.

EC-GI-10 = type: functional, cell-based, Homo sapiens; settings: Homo sapiens, EC-GI-10
Description: SANGER: Inhibition of human EC-GI-10 cell growth in a cell viability assay.

EKVX = type: functional, cell-based, Homo sapiens; settings: Homo sapiens, EKVX;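 note: growth inhibition of human EKVX cells, read out with a cell viability assay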
Description: SANGER: Inhibition of human EKVX cell growth in a cell viability assay.

ES3 = type: functional, cell-based, Homo sapiens; settings: Homo sapiens, ES3;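 note: growth inhibition of ES3 cells, read out with a cell viability assay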
Description: SANGER: Inhibition of human ES3 cell growth in a cell viability assay.

ES4 = type: functional, cell-based, Homo sapiens; settings: Homo sapiens, ES4;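 note: growth inhibition of human ES4 cells, read out by a cell viability assay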
Description: SANGER: Inhibition of human ES4 cell growth in a cell viability assay.

ES5 = type: functional, cell-based, Homo sapiens; settings: Homo sapiens, ES5;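 note: growth inhibition of human ES5 cells, read out by a cell viability assay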
Description: SANGER: Inhibition of human ES5 cell growth in a cell viability assay.

ES6 = type: functional, cell-based, Homo sapiens; settings: Homo sapiens, ES6;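 note: growth inhibition of human ES6 cells, read out with a cell viability assay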
Description: SANGER: Inhibition of human ES6 cell growth in a cell viability assay.

EOL1 = type: functional, cell-based, Homo sapiens; settings: Homo sapiens, EOL1;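 note: growth inhibition of EoL-1 cells, read out by a cell viability assay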
Description: SANGER: Inhibition of human EoL-1-cell cell growth in a cell viability assay.

HAL-01 = type: functional, cell-based, Homo sapiens; settings: Homo sapiens, HAL-01;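 note: growth inhibition of human HAL-01 cells, read out with a cell viability assay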
Description: SANGER: Inhibition of human HAL-01 cell growth in a cell viability assay.

HC-1 = type: functional, cell-based, Homo sapiens; settings: Homo sapiens, HC-1;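 note: growth inhibition of HC-1 cells measured by a cell viability assay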
Description: SANGER: Inhibition of human HC-1 cell growth in a cell viability assay.

HCC2218 = type: functional, cell-based, Homo sapiens; settings: Homo sapiens, HCC2218;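 note: cell viability assay read-out, with IC50 given as the concentration that inhibits growth of the cell line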
Description: SANGER: Inhibition of human HCC2218 cell growth in a cell viability assay.

HD-MY-Z = type: functional, cell-based, Homo sapiens; settings: Homo sapiens, HD-MY-Z;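 note: growth inhibition of HD-MY-Z cells, read out with a cell viability assay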
Description: SANGER: Inhibition of human HD-MY-Z cell growth in a cell viability assay.

HEL = type: functional, cell-based, Homo sapiens; settings: Homo sapiens, HEL;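 note: growth inhibition of HEL cells, read out with a cell viability assay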
Description: SANGER: Inhibition of human HEL cell growth in a cell viability assay.

J-RT3-T3-5 = type: functional, cell-based, Homo sapiens; settings: Homo sapiens, J-RT3-T3-5;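 note: cell viability assay measuring growth inhibition of human J-RT3-T3-5 cells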
Description: SANGER: Inhibition of human J-RT3-T3-5 cell growth in a cell viability assay.

KLE = type: functional, cell-based, Homo sapiens; settings: Homo sapiens, KLE;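 note: growth inhibition of human KLE cells, read out with a cell viability assay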
Description: SANGER: Inhibition of human KLE cell growth in a cell viability assay.

KM12 = type: functional, cell-based, Homo sapiens; settings: Homo sapiens, KM12;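 note: KM12 cell growth inhibition, read out with a cell viability assay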
Description: SANGER: Inhibition of human KM12 cell growth in a cell viability assay.

KNS-42 = type: functional, cell-based, Homo sapiens; settings: Homo sapiens, KNS-42;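 note: growth inhibition of KNS-42 cells, read out with a cell viability assay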
Description: SANGER: Inhibition of human KNS-42 cell growth in a cell viability assay.

KNS-81-FD = type: functional, cell-based, Homo sapiens; settings: Homo sapiens, KNS-81-FD;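 note: growth inhibition of KNS-81-FD cells, read out with a cell viability assay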
Description: SANGER: Inhibition of human KNS-81-FD cell growth in a cell viability assay.

KS-1 = type: functional, cell-based, Homo sapiens; settings: Homo sapiens, KS-1;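 note: growth inhibition of KS-1 cells, read out with a cell viability assay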
Description: SANGER: Inhibition of human KS-1 cell growth in a cell viability assay.

KY821 = type: functional, cell-based, Homo sapiens; settings: Homo sapiens, KY821;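 note: growth inhibition of human KY821 cells, read out by a cell viability assay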
Description: SANGER: Inhibition of human KY821 cell growth in a cell viability assay.

LB373-MEL-D = type: functional, cell-based, Homo sapiens; settings: Homo sapiens, LB373-MEL-D;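 note: growth inhibition of the cell line, read out in a cell viability assay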
Description: SANGER: Inhibition of human LB373-MEL-D cell growth in a cell viability assay.

LB771-HNC = type: functional, cell-based, Homo sapiens; settings: Homo sapiens, LB771-HNC;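 note: growth inhibition of LB771-HNC human cells, read out with a cell viability assay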
Description: SANGER: Inhibition of human LB771-HNC cell growth in a cell viability assay.

LS-1034 = type: functional, cell-based, Homo sapiens; settings: Homo sapiens, LS-1034
Description: SANGER: Inhibition of human LS-1034 cell growth in a cell viability assay.

LS-411N = type: functional, cell-based, Homo sapiens; settings: Homo sapiens, LS-411N
LU-139 = type: functional, cell-based, Homo sapiens; settings: Homo sapiens, LU-139
Description: SANGER: Inhibition of human LU-139 cell growth in a cell viability assay.

MFM-223 = type: functional, cell-based, Homo sapiens; settings: Homo sapiens, MFM-223
Description: SANGER: Inhibition of human MFM-223 cell growth in a cell viability assay.

MOLT-16 = type: functional, cell-based, Homo sapiens; settings: Homo sapiens, MOLT-16;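 note: growth inhibition of human MOLT-16 cells, read out with a cell viability assay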
Description: SANGER: Inhibition of human MOLT-16 cell growth in a cell viability assay.

MV4-11 = type: functional, cell-based, Homo sapiens, MV-4-11; settings: Homo sapiens, MV4-11;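 note: cell viability readout measuring growth inhibition of human MV-4-11 cells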
Description: SANGER: Inhibition of human MV-4-11 cell growth in a cell viability assay.

NCI-H1838 = type: functional, cell-based, Homo sapiens; settings: Homo sapiens, NCI-H1838;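 note: growth inhibition of NCI-H1838 cells, determined with a cell viability readout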
Description: SANGER: Inhibition of human NCI-H1838 cell growth in a cell viability assay.

NCI-H226 = type: functional, cell-based, Homo sapiens; settings: Homo sapiens, NCI-H226;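 note: cell viability read-out used to gauge growth inhibition of the cells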
Description: SANGER: Inhibition of human NCI-H226 cell growth in a cell viability assay.

NCI-H69 = type: functional, cell-based, Homo sapiens; settings: Homo sapiens, NCI-H69;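 note: growth inhibition of the cell line, read out with a cell viability assay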
Description: SANGER: Inhibition of human NCI-H69 cell growth in a cell viability assay.

NCI-H720 = type: functional, cell-based, Homo sapiens; settings: Homo sapiens, NCI-H720;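 note: growth inhibition of human NCI-H720 cells determined by a cell viability assay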
Description: SANGER: Inhibition of human NCI-H720 cell growth in a cell viability assay.

SNU1 = type: functional, cell-based, Homo sapiens; settings: Homo sapiens, SNU1;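 note: growth inhibition of human NCI-SNU-1 cells, measured with a cell viability assay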
Description: SANGER: Inhibition of human NCI-SNU-1 cell growth in a cell viability assay.

NOS-1 = type: functional, cell-based, Homo sapiens; settings: Homo sapiens, NOS-1;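 note: growth inhibition of the human NOS-1 cell line, read out with a cell viability assay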
Description: SANGER: Inhibition of human NOS-1 cell growth in a cell viability assay.

NTERA-2-cl-D1 = type: functional, cell-based, Homo sapiens; settings: Homo sapiens, NTERA-2-cl-D1;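 note: inhibition of cell growth, measured with a cell viability assay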
Description: SANGER: Inhibition of human NTERA-S-cl-D1 cell growth in a cell viability assay.

SJSA-1 = type: functional, cell-based, Homo sapiens; settings: Homo sapiens, SJSA-1;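 note: growth inhibition of human SJSA-1 cells, read out through a cell viability measurement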
Description: SANGER: Inhibition of human SJSA-1 cell growth in a cell viability assay.

SK-LMS-1 = type: functional, cell-based, Homo sapiens; settings: Homo sapiens, SK-LMS-1;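 note: growth inhibition of human SK-LMS-1 cells, read out with a cell viability assay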
Description: SANGER: Inhibition of human SK-LMS-1 cell growth in a cell viability assay.

SK-NEP-1 = type: functional, cell-based, Homo sapiens; settings: Homo sapiens, SK-NEP-1;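 note: growth inhibition of human SK-NEP-1 cells, read out by a cell viability assay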
Description: SANGER: Inhibition of human SK-NEP-1 cell growth in a cell viability assay.

SW684 = type: functional, cell-based, Homo sapiens; settings: Homo sapiens, SW684;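 note: growth inhibition of human SW684 cells, measured by a cell viability assay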
Description: SANGER: Inhibition of human SW684 cell growth in a cell viability assay.

A3-KAW = type: functional, cell-based, Homo sapiens; settings: Homo sapiens, A3-KAW;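 note: growth inhibition of human A3-KAW cells, read out with a cell viability assay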
Description: SANGER: Inhibition of human A3-KAW cell growth in a cell viability assay.

ATN-1 = type: functional, cell-based, Homo sapiens; settings: Homo sapiens, ATN-1;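 note: growth inhibition of human ATN-1 cells, read out with a cell viability assay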
Description: SANGER: Inhibition of human ATN-1 cell growth in a cell viability assay.

TE-10 = type: functional, cell-based, Homo sapiens; settings: Homo sapiens, TE-10;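 note: growth inhibition of TE-10 cells, measured by a cell viability assay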
Description: SANGER: Inhibition of human TE-10 cell growth in a cell viability assay.

TE-11 = type: functional, cell-based, Homo sapiens; settings: Homo sapiens, TE-11;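 note: growth inhibition of human TE-11 cells, read out by a cell viability assay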
Description: SANGER: Inhibition of human TE-11 cell growth in a cell viability assay.

TK-10 = type: functional, cell-based, Homo sapiens; settings: Homo sapiens, TK-10;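 note: growth inhibition of TK-10 cells, read out in a cell viability assay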
Description: SANGER: Inhibition of human TK10 cell growth in a cell viability assay.

CAS-1 = type: functional, cell-based, Homo sapiens; settings: Homo sapiens, CAS-1;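 note: growth inhibition of CAS-1 cells, measured with a cell viability assay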
Description: SANGER: Inhibition of human CAS-1 cell growth in a cell viability assay.

COLO-684 = type: functional, cell-based, Homo sapiens; settings: Homo sapiens, COLO-684
Description: SANGER: Inhibition of human COLO-684 cell growth in a cell viability assay.

C=C(c1ccc(C(=O)O)cc1)c1cc2c(cc1C)C(C)(C)CCC2(C)C [BEXAROTENE]
IC50 (COLO-800): > 8000 nM | IC50 (CTV-1): > 8000 nM | IC50 (D283 Med): > 8000 nM | IC50 (DSH1): > 8000 nM | IC50 (EC-GI-10): > 8000 nM | IC50 (EKVX): 165 nM | IC50 (ES3): > 8000 nM | IC50 (ES4): 3770 nM | IC50 (ES5): > 8000 nM | IC50 (ES6): > 8000 nM | IC50 (EOL1): > 8000 nM | IC50 (HAL-01): > 8000 nM | IC50 (HC-1): > 8000 nM | IC50 (HCC2218): > 8000 nM | IC50 (HD-MY-Z): > 8000 nM | IC50 (HEL): > 8000 nM | IC50 (J-RT3-T3-5): > 8000 nM | IC50 (KLE): > 8000 nM | IC50 (KM12): > 8000 nM | IC50 (KNS-42): > 8000 nM | IC50 (KNS-81-FD): > 8000 nM | IC50 (KS-1): > 8000 nM | IC50 (KY821): > 8000 nM | IC50 (LB373-MEL-D): > 8000 nM | IC50 (LB771-HNC): 2500 nM | IC50 (LS-1034): > 8000 nM | IC50 (LS-411N): > 8000 nM | IC50 (LU-139): > 8000 nM | IC50 (MFM-223): > 8000 nM | IC50 (MOLT-16): > 8000 nM | IC50 (MV4-11): 453 nM | IC50 (NCI-H1838): > 8000 nM | IC50 (NCI-H226): > 8000 nM | IC50 (NCI-H69): > 8000 nM | IC50 (NCI-H720): > 8000 nM | IC50 (SNU1): > 8000 nM | IC50 (NOS-1): 6920 nM | IC50 (NTERA-2-cl-D1): > 8000 nM | IC50 (SJSA-1): > 8000 nM | IC50 (SK-LMS-1): 7620 nM | IC50 (SK-NEP-1): > 8000 nM | IC50 (SW684): > 8000 nM | IC50 (A3-KAW): > 8000 nM | IC50 (ATN-1): 3340 nM | IC50 (TE-10): > 8000 nM | IC50 (TE-11): > 8000 nM | IC50 (TK-10): > 8000 nM | IC50 (CAS-1): > 8000 nM | IC50 (COLO-684): > 8000 nM

CCC/C=C/C=C/C(=O)O[C@H]1/C(=C/C(=O)OC)C[C@H]2C[C@H]([C@@H](C)O)OC(=O)C[C@H](O)C[C@@H]3C[C@H](OC(C)=O)C(C)(C)[C@](O)(C[C@@H]4C/C(=C/C(=O)OC)C[C@H](/C=C/C(C)(C)[C@]1(O)O2)O4)O3 [BRYOSTATIN 1]
IC50 (COLO-800): > 8 nM | IC50 (CTV-1): > 8 nM | IC50 (D283 Med): > 8 nM | IC50 (DSH1): > 8 nM | IC50 (EC-GI-10): > 8 nM | IC50 (EKVX): > 8 nM | IC50 (ES3): > 8 nM | IC50 (ES4): > 8 nM | IC50 (ES5): > 8 nM | IC50 (ES6): > 8 nM | IC50 (EOL1): > 8 nM | IC50 (HAL-01): > 8 nM | IC50 (HC-1): > 8 nM | IC50 (HCC2218): > 8 nM | IC50 (HD-MY-Z): > 8 nM | IC50 (HEL): > 8 nM | IC50 (J-RT3-T3-5): > 8 nM | IC50 (KLE): > 8 nM | IC50 (KM12): > 8 nM | IC50 (KNS-42): > 8 nM | IC50 (KNS-81-FD): > 8 nM | IC50 (KS-1): > 8 nM | IC50 (KY821): > 8 nM | IC50 (LB373-MEL-D): > 8 nM | IC50 (LB771-HNC): > 8 nM | IC50 (LS-1034): > 8 nM | IC50 (LS-411N): > 8 nM | IC50 (LU-139): > 8 nM | IC50 (MFM-223): > 8 nM | IC50 (MOLT-16): > 8 nM | IC50 (MV4-11): > 8 nM | IC50 (NCI-H1838): > 8 nM | IC50 (NCI-H226): > 8 nM | IC50 (NCI-H69): > 8 nM | IC50 (NCI-H720): > 8 nM | IC50 (SNU1): > 8 nM | IC50 (NOS-1): > 8 nM | IC50 (NTERA-2-cl-D1): > 8 nM | IC50 (SJSA-1): > 8 nM | IC50 (SK-LMS-1): > 8 nM | IC50 (SK-NEP-1): > 8 nM | IC50 (SW684): > 8 nM | IC50 (A3-KAW): > 8 nM | IC50 (ATN-1): > 8 nM | IC50 (TE-10): > 8 nM | IC50 (TE-11): > 8 nM | IC50 (TK-10): > 8 nM | IC50 (CAS-1): > 8 nM | IC50 (COLO-684): > 8 nM
